From US3972991A, “Radioisotopic assay and binder therefor” (priority 1974, dated 1976)
Structures can show the parent of a compound that is named as a salt.

Key:
hog kidney binder factor [1] = experiment: effect of enzymes, pH, ions, chelators, denaturants and other agents on binding of 3H-PGA to hog kidney binder; conditions: for effect on binding activity of the binder composition: before complex formation
storage stability = format: physicochemical
Procedure: The standard or known folate (d,1,L-5-methyltetrahydrofolic acid) (Sigma Chemical) is dissolved in 0.05 M potassium phosphate buffer pH 7.6 and then brought to 0.1 M with 2-mercapto-ethanol. Here the mercapto-alcohol acts as a stabilizer for the folate or folic acid.
High specific activity ^3 H-PGA (15-50 Ci/m mole; Amersham Searle) is conveniently utilized as the tracer or labeled compound. It is dissolved in 20% ethanol and stored at -80°C. For use in the assay, the stock solution is diluted 1:100 in potassium phosphate buffer (0.05 M pH 7.6).
Finely divided activated charcoal coated with albumin is prepared by mixing equal volumes of a 5% powdered activated charcoal (Norit A) suspension (w/v, in distilled water) and a 1% aqueous solution of bovine albumin (Fraction V of Cohn).
Blood to be assayed for folate is obtained by venapuncture and allowed to clot at room temperature. The serum is collected by centrifugation and 5 milligrams of ascorbic acid per milliliter of serum is added.

hog kidney folate binder = experiment: direct competition for PGA binding sites in hog kidney folate binder (FIG. 6A)
Procedure: The reaction was started by addition of folate binder and allowed to proceed for 30 minutes at room temperature in the dark. The reaction was stopped by placing the tubes on ice and adding 1.0 ml of a suspension of powdered activated charcoal coated with albumin. After 2 to 3 minutes on ice, the tubes were centrifuged at 6000 × G for 10 minutes at 4°C to remove the charcoal absorbed "free" folate. 1.0 ml of the clear supernatant fluid which contained the folate/binder complex was counted by liquid scintillation spectroscopy according to known procedures. Charcoal controls prepared by substituting buffer for binder in one series of tubes were prepared to determine the number of counts not removed by the charcoal. Percent maximum binding was calculated by the formula [formula]

hog kidney binder factor [2] = experiment: sequential addition of unlabeled folate derivatives and 3H-PGA, displacement (FIG. 6B); format: binding; conditions: PGA curve of FIG. 6B
Procedure: The binding conditions were similar to those used in obtaining the data appearing in FIG. 6A except that 3 pmoles of ^3 H-PGA was added to the reaction containing enough binder factor to bind about 2.5 pmoles of PGA. The binder was preincubated for 30 minutes in the dark at room temperature with unlabeled folate derivatives as indicated. Then the ^3 H-PGA was added and the reaction allowed to continue for an additional 30 minutes and then stopped and counted as in obtaining the data for FIG. 6A.
The calculated curve of FIG. 6B depicts the relationship to be expected by balancing on a molar basis the binding capacity of the hog kidney binder factor with the known pmoles of folate analog added in the absence of any displacement. […] The hog kidney binder factor thus differs from other high affinity folate binder factors such as those found in milk and in serum and in leukocytes of some patients with chronic granulocytic leukemia.

hog kidney binder = experiment: direct binding studies with labeled folates on hog kidney binder
hog kidney binder factor [3] = experiment: rate of PGA binder complex formation and dissociation; format: binding; conditions: for initial rate of binding: 3H-PGA approximately 20% excess
Procedure: The rate of PGA binder complex formation with hog kidney binder factor was determined at several temperatures by equilibrating solutions of the binder and of ^3 H-PGA at the appropriate temperature and then combining aliquots of each such that the ^3 H-PGA was in approximately 20% excess to the binding capacity of the hot kidney binder factor composition. The reaction was terminated by the addition of 1.0 ml of ice cold suspension of powdered activated charcoal coated with albumin.

All other binder factors = experiment: inactivation of other binder factors by trypsin; format: binding; conditions: trypsin solution 1:250, 1 mg/ml
Procedure: Preincubating a 1.0 ml aliquot of binder extract from hog kidney having a binding capacity of 25 ng PGA/ml, with 1.0 ml RNase (Worthington, 2 micrograms per ml) or with DNase I (Worthington 2 micrograms per ml) for 30 minutes at 37°C had no effect on the binding of ^3 H-PGA. […] All other binder factors are inactivated by a trypsin solution 1:250, 1 mg/ml.

Molecule: OCCS [2-mercaptoethanol]
- effect on the binding reaction (hog kidney binder factor [1]; concentrations of 10^-^7 to 10^-^1 M): no effect

Molecule: CN1c2c(nc(N)[nH]c2=O)NCC1CNc1ccc(C(=O)N[C@@H](CCC(=O)O)C(=O)O)cc1 (stereo partly shown) [5CH3 FH4, d,1,5-methyltetrahydrofolic acid]
- stability of stock solution (storage stability; approximately 5 micrograms per ml, 0.1 M 2-mercaptoethanol, pH 7.6, -80°C): at least 6 months
- amount required to achieve 50% inhibition of 3H-PGA binding (hog kidney folate binder; FIG. 6A, 0.225 pmoles 3H-PGA, pH 7.6, total volume 1.0 ml, 30 min room temperature): about 0.32 pmoles
- tightness of binding of the hog kidney binder factor with PGA and 5CH3 FH4 (hog kidney binder factor [2]): approximately equal

Molecule: O=C(O)CN(CCN(CC(=O)O)CC(=O)O)CC(=O)O [EDTA, ethyldiamine tetraacetic acid]
- effect on binding at any pH (hog kidney binder factor [1]; 20 mM): No effect

Molecule: Nc1nc2c(c(=O)[nH]1)NC(CN(C=O)c1ccc(C(=O)N[C@@H](CCC(=O)O)C(=O)O)cc1)CN2 (stereo partly shown) [N-10, formyltetrahydrofolic acid]
- competition for PGA binding sites (hog kidney folate binder): high degree of competition

Molecule: CN(Cc1cnc2nc(N)nc(N)c2n1)c1ccc(C(=O)N[C@@H](CCC(=O)O)C(=O)O)cc1 [^3 H-MTX, ^3 H-methotrexate]
- binding affinity less than that of 3H-PGA (hog kidney binder; direct binding, 3H-MTX 13 Ci/mmole): at least 500 times

Molecule: [14CH3]N1c2c([nH]c(N)nc2=O)NCC1CNc1ccc(C(=O)N[C@@H](CCC(=O)O)C(=O)O)cc1 (stereo partly shown) [^14 C--5CH3 FH4]
- binding results compared with those obtained with 3H-PGA (hog kidney binder): essentially the same
- bound by the extract, of the available labeled folate (hog kidney binder): more than 90%

Molecule: [Ca+2] [calcium]
- effect on binding at any pH (hog kidney binder factor [1]; 5 mM): No effect

Molecule: O=C(O)CC(O)(CC(=O)O)C(=O)O [citrate]
- effect on binding at any pH (hog kidney binder factor [1]; 10 mM): No effect

Molecule: Nc1nc2c(c(=O)[nH]1)NC(CNc1ccc(C(=O)N[C@@H](CCC(=O)O)C(=O)O)cc1)CN2 (stereo partly shown) [d, 1-tetrahydrofolic acid]
- competition for PGA binding sites (hog kidney folate binder): high degree of competition

Molecule: N=C(N)N [guanidine hydrochloride]
- effect on folate binder complex after it had formed (hog kidney binder factor [1]; 6 M): could disrupt the complex
- reversibility of the guanidine hydrochloride effect (hog kidney binder factor [1]; 6 M): nearly completely reversible
- effect on binding activity of the binder composition (hog kidney binder factor [1]; 6 M): binding activity was lost

Molecule: [Mg+2] [magnesium]
- effect on binding at any pH (hog kidney binder factor [1]; 5 mM): No effect

Molecule: c1cnc2c(c1)ccc1cccnc12 [o-phenanthroline]
- effect on the binding reaction (hog kidney binder factor [1]; concentrations up to 2.0 × 10^-^6 M): no effect

Molecule: NC(N)=O [urea]
- effect on folate binder complex after it had formed (hog kidney binder factor [1]; 8 M): no effect
- effect on binding activity of the binder composition (hog kidney binder factor [1]; 8 M): binding activity was lost

Molecule: [Zn] [zinc]
- effect on binding at any pH (hog kidney binder factor [1]; 5 mM): No effect

Molecule: ^3 H-pteroylmonoglutamate [^3 H-PGA]
- initial rate of binding (hog kidney binder factor [3]; 4°C): about 0.65 % per second
- initial rate of binding (hog kidney binder factor [3]; 21°C): 1.3 % per second
- initial rate of binding (hog kidney binder factor [3]; 37°C): 2.5 % per second
- disassociation of the 3H-PGA binder complex (hog kidney binder factor [3]; one hour at 37°C, 50-fold excess of unlabeled PGA): no significant disassociation
- stability (storage stability): unstable

B1: RNase: RNase (Worthington) (protein, UniProt P61823 27-150, looked up)
Ribonuclease pancreatic: KETAAAKFERQHMDSSTSAASSSNYCNQMMKSRNLTKDRCKPVNTFVHESLADVQAVCSQKNVACKNGQTNCYQSYSTMSITDCRETGSSKYPNCAYKTTQANKHIIVACEGNPYVPVHFDASV
- effect of preincubation on binding of 3H-PGA (hog kidney binder factor [1]; 2 micrograms per ml, 30 minutes at 37°C): no effect

B2: trypsin: solution of trypsin (protein, UniProt P00760 24-246, looked up)
Serine protease 1: IVGGYTCGANTVPYQVSLNSGYHFCGGSLINSQWVVSAAHCYKSGIQVRLGEDNINVVEGNEQFISASKSIVHPSYNSNTLNNDIMLIKLKSAASLNSRVASISLPTSCASAGTQCLISGWGNTKSSGTSYPDVLKCLKAPILSDSSCKSAYPGQITSNMFCAGYLEGGKDSCQGDSGGPVVCSGKLQGIVSWGSGCAQKNKPGVYTKVCNYVSWIKQTIASN
- inactivation of other binder factors by trypsin (All other binder factors): inactivated
- effect of preincubation with trypsin on hog binder factor (hog kidney binder factor [1]; 1.0 ml trypsin solution, 30 minutes): completely inactivated
